In ChEMBL document CHEMBL3808297, “The synthesis and synergistic antifungal effects of chalcones against drug resistant Candida albicans” (2016):
≈ marks a conversion by molar mass, not a printed value.

Key:
Type in all cases: functional
Candida albicans [1] = assay: Antifungal activity against fluconazole-resistant Candida albicans clinical isolate 103 by microbroth dilution method
Candida albicans [2] = assay: Antifungal activity against fluconazole-resistant Candida albicans clinical isolate 103 assessed as fractional inhibitory concentration index by microbroth dilution method in presence of 8 ug/ml fluconazole
Candida albicans [3] = assay: Antifungal activity against fluconazole-resistant Candida albicans clinical isolate 103 by microbroth dilution method in presence of 8 ug/ml fluconazole

SMILES | MIC80 (Candida albicans [1]) [µg/mL] | fractional inhibitory concentration index (FICI) (Candida albicans [2]) | MIC80 (Candida albicans [3]) [µg/mL]
O=C(/C=C/c1cccs1)c1ccccc1O | > 64 | >1.06 | > 64
O=C(/C=C/c1ccc2c(c1)OCO2)c1ccccc1O | > 64 | 0.315 | 32
COc1cc(/C=C/C(=O)c2ccccc2O)ccc1O | > 64 | >1.06 | > 64
COc1cccc(O)c1C(=O)/C=C/c1cccnc1 | > 64 | 0.125 | 8
O=C(/C=C/c1ccccc1)c1cc(Br)c(O)c(Br)c1O | 64 (≈ 161 µM) | 0.125 | 4
COc1ccc(/C=C/C(=O)c2ccc(O)cc2)cc1OC | > 64 | >1.06 | > 64
O=C(/C=C/c1ccc2c(c1)OCO2)c1ccccc1Cl | > 64 | 0.315 | 32
O=C(/C=C/c1ccc(CO)o1)c1ccccc1O | > 64 | 0.125 | 8
COc1cccc(O)c1C(=O)/C=C/c1cccs1 | > 64 | 0.094 | 4
O=c1cc(-c2ccccc2)oc2cc(O)c(O)c(O)c12 [BAICALEIN] | 32 (≈ 118 µM) | 0.188 | 4
COc1cccc(O)c1C(=O)/C=C/c1ccccc1 | > 64 | 0.188 | 16
O=C(/C=C/c1ccc(Br)cc1)c1c(O)cccc1O | > 64 | 0.188 | 16
Nc1ccccc1C(=O)/C=C/c1ccco1 | > 64 | >1.06 | > 64
O=C(/C=C/c1ccccc1)c1ccc(O)cc1 [4'-HYDROXYCHALCONE] | > 64 | >1.06 | > 64
COc1cccc(O)c1C(=O)/C=C/c1ccc2c(c1)OCO2 | > 64 | 0.094 | 4
COc1ccc(/C=C/C(=O)c2ccccc2N)cc1OC | > 64 | 0.315 | 32
COc1cccc(O)c1C(=O)/C=C/c1ccc(CO)o1 | > 64 | 0.125 | 8
O=C(/C=C/c1ccc(C(F)(F)F)cc1)c1ccccc1O | > 64 | 0.506 | 64
COc1ccc(C(=O)/C=C/c2ccccc2)c(O)c1 | > 64 |  | 1
COc1ccc(/C=C/C(=O)c2ccccc2Cl)cc1OC | > 64 | >1.06 | > 64
CN(C)c1ccc(/C=C/C(=O)c2ccccc2F)cc1 | > 64 | 0.125 | 8
O=C(/C=C/c1ccco1)c1ccccc1O | > 64 | 0.506 | 64
COc1ccc(/C=C/C(=O)c2ccccc2F)cc1 | > 64 | 0.506 | 64
O=C(/C=C/c1ccc(F)cc1)c1ccccc1O | > 64 | 0.315 | 32
COc1cccc(O)c1C(=O)/C=C/c1ccco1 | > 64 | 0.094 | 4
